Assay results from patent US4661494A (priority 1985, dated 1987).

Tests used:
Type in all cases: in vivo
[1] = system: Rice Blast organism Piricularia oryzae; experiment: whole plant or invertebrate
[2] = system: Celery Late Blight organism Septoria apii; experiment: whole plant or invertebrate
[3] = system: Tomato Early Blight organism Alternaria solani conidia; experiment: Tomato Early Blight control, tomato seedlings; settings: inoculated 1 day later, about 12 days
Method: Compounds of the invention were tested for the control of the Tomato Early Blight organism Alternaria solani conidia. Tomato (variety Bonny Best) seedlings of 6- to 7-weeks old were used. The tomato plants were sprayed with a 250-ppm solution of the test compound in an acetone-and-water solution containing a small amount of a nonionic emulsifier. The sprayed plants were inoculated 1 day later with the organism, placed in the environmental chamber and incubated at 66° F. to 68° F. and 100% relative humidity for 24 hours. Following the incubation, the plants were maintained in a greenhouse for about 12 days. Percent disease control was based on the percent disease development on untreated check plants.

[4] = system: Grape Downy Mildew organism Plasmopara viticola; experiment: Grape Downy Mildew control, detached grape leaves; settings: held 7 to 9 days after 2 days incubation
Method: The compounds of the invention were tested for the control of the Grape Downy Mildew organism Plasmopara viticola. Detached leaves, between 70 mm and 85 mm in diameter, 7-week-old Vitis vinifera cultivar Emperor grape seedlings were used as hosts. The leaves were sprayed with a 250-ppm solution of the test compound in acetone. The sprayed leaves were dried, inoculated with a spore suspension of the organism, placed in a humid environmental chamber and incubated at 66° F. to 68° F. and about 100% relative humidity. After incubation for 2 days, the plants were then held in a greenhouse 7 to 9 days; then the amount of disease control was determined. The percent disease control provided by a given test compound was based on the percent disease reduction relative to untreated check plants.

[5] = system: Tomato Late Blight organism Phytophthora infestans; experiment: whole plant or invertebrate
[6] = system: Bean Powdery Mildew organism Erysiphe polygoni; experiment: Bean Powdery Mildew control, seedling bean plants; settings: inoculated 1 day later, 10 days
Method: The compounds of the invention were tested for the control of the Bean Powdery Mildew organism Erysiphe polygoni. Seedling bean plants were sprayed with a 250-ppm solution of the test compound in acetone, water and a nonionic emulsifier. The sprayed plants were then inoculated 1 day later with the organism. The plants were maintained for 10 days at temperatures of 68° F. at night with daytime temperatures of 72° F. to 80° F.; relative humidity was maintained at 40% to 60%. The percent disease control provided by a given test compound was based on the percent disease reduction relative to the untreated check plants.

Uromyces phaseoli tipica = experiment: Leaf Rust (Bean Rust) control, pinto beans; settings: about 14 days
Method: The Leaf Rust test was made using pinto beans. The pathogen was Uromyces phaseoli tipica. The pinto bean plants were sprayed with a 250-ppm solution of the test compound in an acetone-water mixture containing a nonionic emulsifier. The treated plants were inoculated thereafter with the pathogen and then incubated in an environmental chamber for approximately 20 hours at 100% relative humidity and a temperature of 68° F. to 70° F. The plants were then removed from the chamber, allowed to dry, and then maintained in a greenhouse at a 60% to 80% relative humidity. The rate of infection on the leaves was made after about 14 days. The percent disease control provided by a given test compound was based on the percent disease reduction relative to untreated check plants.

SMILES	activity at 625 ppm ([1]; Pyricularia oryzae, read-out: Fungicidal Activity % Control RB) [%]	activity at 250 ppm ([2]; 336 h, read-out: Fungicidal Activity % Control CLB) [%]	activity at 250 ppm ([3]; Alternaria solani, read-out: Fungicidal Activity % Control TEB) [%]	activity at 250 ppm ([4]; Plasmopara viticola, in Vitis vinifera, read-out: Fungicidal Activity % Control GDM) [%]	activity at 250 ppm ([5]; Phytophthora infestans, read-out: Fungicidal Activity % Control TLB) [%]	activity at 250 ppm ([6]; Erysiphe polygoni, read-out: Fungicidal Activity % Control BPM) [%]	activity at 250 ppm (Uromyces phaseoli tipica; Uromyces phaseoli, 336 h, read-out: Fungicidal Activity % Control BR) [%]	Fungicidal Activity % Control RB ([1]; 625 ppm, rice (Calrose M-9), inoculated 1 day later, about 12 to 16 days) [%]	Fungicidal Activity % Control CLB ([2]; 250 ppm, celery (Utah), approximately 14 days) [%]	Fungicidal Activity % Control TEB ([3]; 250 ppm) [%]	Fungicidal Activity % Control GDM ([4]; 250 ppm, detached Vitis vinifera leaves) [%]	Fungicidal Activity % Control TLB ([5]; 250 ppm, tomato, inoculated 1 day later, approximately 7 days) [%]	Fungicidal Activity % Control BPM ([6]; 250 ppm) [%]	Fungicidal Activity % Control BR (Uromyces phaseoli tipica; 250 ppm) [%]
CCCN(CC(=O)Nc1c(Cl)cc(Cl)cc1Cl)C(=O)c1cccnc1 [Compound 1, N-(2,4,6-trichlorophenyl), N'-(n-propyl), N'-(3-pyridylcarbonyl) glycinamide]	0	50	85	3	0	100	4	–	–	–	–	–	–	–
CCCN(CC(=O)Nc1c(C)cccc1C)C(=O)c1cccnc1 [Compound 2, N-(2,6-dimethylphenyl)-N'-(n-propyl), N'-(3-pyridylcarbonyl) glycinamide]	–	–	–	–	–	–	–	0	58	22	7	10	53	0
